Consider 21 molecules from patent US7323469B2, “7H-pyrrolo[2,3-d]pyrimidine derivatives” (Novartis AG, priority 2001, dated 2008).

The structures appear in SMILES notation.

One data set concerns the target T1, EGF-R (HER-1) (Homo sapiens, UniProt P00533).
T1 construct: using the recombinant intracellular domain of the EGF-receptor [EGF-R ICD
Description: Inhibition of EGF-R tyrosine kinase activity (recombinant intracellular domain, EGF-R ICD). Format: biochemical. The protocol: J. Biochem. 207, 265-275 (1992)].
(§1) Inhibition of the Tyrosine Kinase Activity of EGF-R (HER-1), ErbB-2 (HER-2) and VEGF Receptor (KDR)
(§2) The inhibition tests are carried out as described above.

A further data set addresses ErbB-2 (HER-2) (Homo sapiens, UniProt P04626). In words: Inhibition of ErbB-2 tyrosine kinase activity. It is filed as biochemical. How it is done:
The inhibitory activity (IC50) is approximately in the range of 0.001 to 0.5 μM. The inhibition of ErbB-2 tyrosine kinase (HER-2) can be determined, for example, analogously to the method used for EGF-R protein tyrosine kinase [see C. House et al., Europ. J. Biochem. 140, 363-367 (1984)]. The ErbB-2 kinase can be isolated, and its activity determined, by means of protocols known per se, for example in accordance with T. Akiyama et al., Science 232, 1644 (1986).
as §1, §2

A further data set addresses VEGF Receptor (KDR) (Homo sapiens, UniProt P35968). In words: Inhibition of KDR tyrosine kinase activity. It is filed as biochemical. How it is done:
The compounds of the present invention are therefore very effective dual inhibitors of EGF- and VEGF-receptor family members. For inhibition of KDR and Flt-1 and inhibition of growth factor-induced proliferation of HUVECS see J. Wood et al., Cancer Res. 60, 2178-2189 (2000). The compounds of formula I inhibit e.g. the KDR tyrosine kinase activity with an IC50 of from about 1 nM to about 1 μM, especially from about 5 nM to about 0.5 μM.
as §1, §2

VEGF Receptor (KDR), sequence (P35968 20-1356): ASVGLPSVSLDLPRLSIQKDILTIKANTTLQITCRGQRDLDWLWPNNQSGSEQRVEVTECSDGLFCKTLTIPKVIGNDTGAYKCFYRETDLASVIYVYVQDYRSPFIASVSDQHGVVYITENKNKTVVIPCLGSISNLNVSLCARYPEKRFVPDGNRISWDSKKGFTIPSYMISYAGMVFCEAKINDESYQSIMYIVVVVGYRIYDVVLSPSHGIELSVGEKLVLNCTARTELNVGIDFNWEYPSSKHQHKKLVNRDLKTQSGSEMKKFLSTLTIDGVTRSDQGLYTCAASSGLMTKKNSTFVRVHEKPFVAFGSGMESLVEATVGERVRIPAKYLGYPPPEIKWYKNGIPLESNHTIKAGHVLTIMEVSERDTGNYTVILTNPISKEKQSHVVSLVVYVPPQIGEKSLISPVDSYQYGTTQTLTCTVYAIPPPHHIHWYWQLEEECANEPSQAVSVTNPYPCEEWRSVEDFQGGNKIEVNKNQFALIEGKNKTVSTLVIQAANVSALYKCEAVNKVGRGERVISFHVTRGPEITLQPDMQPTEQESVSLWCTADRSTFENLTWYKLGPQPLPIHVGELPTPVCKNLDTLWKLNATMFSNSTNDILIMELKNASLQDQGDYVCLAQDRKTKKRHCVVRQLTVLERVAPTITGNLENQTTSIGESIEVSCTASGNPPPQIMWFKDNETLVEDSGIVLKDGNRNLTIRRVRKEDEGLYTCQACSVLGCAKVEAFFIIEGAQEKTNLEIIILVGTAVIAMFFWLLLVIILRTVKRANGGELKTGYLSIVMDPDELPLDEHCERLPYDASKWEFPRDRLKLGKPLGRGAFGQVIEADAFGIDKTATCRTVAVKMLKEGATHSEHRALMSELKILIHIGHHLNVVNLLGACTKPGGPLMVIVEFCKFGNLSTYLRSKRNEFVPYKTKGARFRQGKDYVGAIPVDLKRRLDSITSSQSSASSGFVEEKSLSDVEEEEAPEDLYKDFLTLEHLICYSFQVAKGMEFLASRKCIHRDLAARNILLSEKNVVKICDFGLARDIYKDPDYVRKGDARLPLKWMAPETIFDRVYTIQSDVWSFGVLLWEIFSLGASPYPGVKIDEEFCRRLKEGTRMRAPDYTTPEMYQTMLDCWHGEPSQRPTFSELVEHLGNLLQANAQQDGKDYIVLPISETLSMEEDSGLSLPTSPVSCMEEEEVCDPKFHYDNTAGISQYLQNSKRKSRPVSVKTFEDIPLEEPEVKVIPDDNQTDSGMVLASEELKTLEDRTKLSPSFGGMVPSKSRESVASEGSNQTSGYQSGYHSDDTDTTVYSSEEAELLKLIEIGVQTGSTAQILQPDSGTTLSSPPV
ErbB-2 (HER-2), sequence (P04626 23-1255): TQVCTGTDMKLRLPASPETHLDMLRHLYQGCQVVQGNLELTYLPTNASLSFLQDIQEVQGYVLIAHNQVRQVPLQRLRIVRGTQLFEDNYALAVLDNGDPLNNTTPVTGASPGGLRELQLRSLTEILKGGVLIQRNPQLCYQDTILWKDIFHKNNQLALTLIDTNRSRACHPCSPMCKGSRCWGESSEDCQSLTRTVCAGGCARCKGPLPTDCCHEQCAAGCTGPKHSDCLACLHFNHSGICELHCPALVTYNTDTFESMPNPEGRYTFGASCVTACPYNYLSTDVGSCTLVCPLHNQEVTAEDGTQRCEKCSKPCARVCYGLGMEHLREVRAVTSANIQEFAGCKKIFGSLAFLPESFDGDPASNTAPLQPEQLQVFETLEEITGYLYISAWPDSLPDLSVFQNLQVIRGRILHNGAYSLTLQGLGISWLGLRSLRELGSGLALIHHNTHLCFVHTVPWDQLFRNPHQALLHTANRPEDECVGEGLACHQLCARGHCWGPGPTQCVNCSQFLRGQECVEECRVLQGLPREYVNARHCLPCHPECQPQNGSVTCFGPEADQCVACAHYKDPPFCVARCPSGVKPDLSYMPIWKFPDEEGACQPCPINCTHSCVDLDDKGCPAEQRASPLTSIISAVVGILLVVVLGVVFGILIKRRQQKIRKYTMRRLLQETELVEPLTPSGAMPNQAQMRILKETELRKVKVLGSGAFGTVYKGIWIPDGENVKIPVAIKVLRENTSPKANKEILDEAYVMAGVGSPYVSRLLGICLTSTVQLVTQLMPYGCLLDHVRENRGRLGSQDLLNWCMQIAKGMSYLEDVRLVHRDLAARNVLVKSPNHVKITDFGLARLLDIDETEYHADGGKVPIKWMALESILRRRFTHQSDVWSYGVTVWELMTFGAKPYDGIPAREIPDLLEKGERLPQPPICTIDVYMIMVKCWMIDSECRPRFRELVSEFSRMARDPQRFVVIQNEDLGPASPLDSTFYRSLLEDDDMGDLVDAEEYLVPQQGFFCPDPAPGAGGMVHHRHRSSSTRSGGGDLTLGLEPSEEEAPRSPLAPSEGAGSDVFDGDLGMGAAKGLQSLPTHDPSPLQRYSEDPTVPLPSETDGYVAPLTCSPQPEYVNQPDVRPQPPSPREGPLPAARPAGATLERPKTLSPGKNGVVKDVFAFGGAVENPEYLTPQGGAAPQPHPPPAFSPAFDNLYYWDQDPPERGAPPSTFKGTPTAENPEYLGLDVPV
T1 sequence (P00533 669-1210 limits assumed): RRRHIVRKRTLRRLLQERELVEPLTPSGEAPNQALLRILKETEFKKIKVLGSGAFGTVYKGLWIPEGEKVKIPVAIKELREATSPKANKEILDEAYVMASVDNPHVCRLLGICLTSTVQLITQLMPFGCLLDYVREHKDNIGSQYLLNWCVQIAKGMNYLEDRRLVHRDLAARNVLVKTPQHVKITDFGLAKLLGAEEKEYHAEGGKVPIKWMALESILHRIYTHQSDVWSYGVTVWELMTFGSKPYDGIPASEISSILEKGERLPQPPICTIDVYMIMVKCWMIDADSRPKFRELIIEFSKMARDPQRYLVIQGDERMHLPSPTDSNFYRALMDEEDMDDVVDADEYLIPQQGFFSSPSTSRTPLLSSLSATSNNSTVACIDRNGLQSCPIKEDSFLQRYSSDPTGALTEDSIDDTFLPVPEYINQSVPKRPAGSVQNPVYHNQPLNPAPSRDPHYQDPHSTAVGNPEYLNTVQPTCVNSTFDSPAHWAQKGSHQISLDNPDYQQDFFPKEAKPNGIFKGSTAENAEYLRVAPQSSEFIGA

In general, IC50 refers to the midpoint of a concentration-inhibition curve. For orientation: melting point means the temperature, or range, at which the solid turns liquid. The molecule `C[C@@H](Nc1ncnc2[nH]c(-c3ccc(CN4CCOCC4)cc3)cc12)c1ccccc1` [Example 15, [6-(4-Morpholin-4-ylmethyl-phenyl)-7H-pyrrolo[2,3-d]pyrimidin-4-yl]-((R)-1-phenyl-ethyl)-amine] had a melting point of 263 to 265 °C. In addition, the 50% inhibitory concentration (IC50) on EGF-R (HER-1) was determined as 0.005 µM. The same molecule yielded an IC50 against ErbB-2 (HER-2) of 0.0065 µM. The molecule further registered an IC50 against VEGF Receptor (KDR) of 0.0493 µM.
With `CN1CCN(Cc2ccc(-c3cc4c(Nc5ccc(OCc6ccccc6)cc5)ncnc4[nH]3)cc2)CC1` [Example 18, (4-Benzyloxy-phenyl)-{6-[4-(4-methyl-piperazin-1-ylmethyl)-phenyl]-7H-pyrrolo[2,3-d]pyrimidin-4-yl}-amine], the melting point was in the range of 256 to 258 °C. Further, the IC50 on EGF-R (HER-1) amounted to 0.0165 µM. The IC50 against ErbB-2 (HER-2) stood at 0.0315 µM. Further, 0.0245 µM corresponded to half-maximal inhibition against VEGF Receptor (KDR) (IC50).
Take `Cc1cccc(CNc2ncnc3[nH]c(-c4ccc(CN(C)C)cc4)cc23)c1` [107f^]: the half-inhibitory concentration (IC50) at EGF-R (HER-1) was 0.0025 µM; against ErbB-2 (HER-2), 0.045 µM; against VEGF Receptor (KDR) it was 0.019 µM.
With `C[C@@H](Nc1ncnc2[nH]c(-c3ccc(CN(C)C)cc3)cc12)c1ccccc1` [Example 13, [6-(4-Dimethylamino-methyl-phenyl)-7H-pyrrolo[2,3-d]pyrimidin-4-yl]-((R)-1-phenyl-ethyl)-amine], the concentration for half-maximal inhibition (IC50) was 0.006 µM on EGF-R (HER-1), 0.005 µM against ErbB-2 (HER-2) and 0.088 µM against VEGF Receptor (KDR).
Take `C[C@@H](Nc1ncnc2[nH]c(-c3ccc(CNCCN4CCOCC4)cc3)cc12)c1ccccc1` [Example 16a, (6-{4-[(2-Morpholin-4-yl-ethylamino)-methyl]-phenyl}-7H-pyrrolo[2,3-d]pyrimidin-4-yl)-((R)-1-phenyl-ethyl)-amine]: the melting point was in the range of 222 to 224 °C. Moreover, the IC50 at EGF-R (HER-1) came to 0.0012 µM. On ErbB-2 (HER-2), the midpoint of inhibition, the IC50, lay at 0.016 µM. Also, half-maximal inhibition at VEGF Receptor (KDR) (IC50) required 0.061 µM.
For the molecule `O=C(CN1CCOCC1)NCc1ccc(-c2cc3c(Nc4ccc(F)c(Cl)c4)ncnc3[nH]2)cc1` [Example 48, N-{4-[4-(3-Chloro-4-fluoro-phenylamino)-7H-pyrrolo[2,3-d]pyrimidin-6-yl]-benzyl}-2-morpholin-4-yl-acetamide], the melting point is 272 to 275 °C. Besides, the IC50 on EGF-R (HER-1) stood at 0.0057 µM. Besides, at ErbB-2 (HER-2), the IC50 stood at 0.0075 µM. At VEGF Receptor (KDR), inhibition was half-maximal at 0.058 µM (IC50).
`CCN(CC)Cc1ccc(-c2cc3c(N[C@H](C)c4ccccc4)ncnc3[nH]2)cc1` [Example 10, [6-(4-Diethylamino-methyl-phenyl)-7H-pyrrolo[2,3-d]pyrimidin-4-yl]-((R)-1-phenyl-ethyl)-amine] gave a melting point of 246 to 248 °C. The molecule also registered a concentration for half-maximal inhibition (IC50) against ErbB-2 (HER-2) of 0.009 µM. This molecule yielded a half-maximal inhibitory concentration (IC50) against VEGF Receptor (KDR) of 0.0293 µM.
The molecule `CN1CCN(Cc2ccc(-c3cc4c(Nc5ccc(F)c(Cl)c5)ncnc4[nH]3)cc2)CC1` [Example 5, (3-Chloro-4-fluoro-phenyl)-{6-[4-(4-methyl-piperazin-1-ylmethyl)-phenyl]-7H-pyrrolo[2,3-d]pyrimidin-4-yl}-amine] showed a melting point of 264 to 266 °C. The 50% inhibitory concentration (IC50) on EGF-R (HER-1) is 0.0031 µM. In addition, the IC50 against ErbB-2 (HER-2) was 0.0067 µM. At VEGF Receptor (KDR), this molecule gave a concentration for half-maximal inhibition (IC50) of 0.006 µM.
For `CN1CCN(Cc2ccc(-c3cc4c(NCc5ccccc5Cl)ncnc4[nH]3)cc2)CC1` [Example 94, (2-Chloro-benzyl)-{6-[4-(4-methyl-piperazin-1-ylmethyl)-phenyl]-7H-pyrrolo[2,3-d]pyrimidin-4-yl}-amine], the melting point was in the range of 267 to 269 °C. For the same molecule, the IC50 on EGF-R (HER-1) came out at 0.0018 µM. Also, the IC50 on ErbB-2 (HER-2) was found to be 0.016 µM. For the same molecule, the concentration for half-maximal inhibition (IC50) against VEGF Receptor (KDR) came to 0.042 µM.
On to `C[C@@H](Nc1ncnc2[nH]c(-c3ccc(CN4CCCCC4)cc3)cc12)c1ccccc1` [Example 14, ((R)-1-Phenyl-ethyl)-[6-(4-piperidin-1-ylmethyl-phenyl)-7H-pyrrolo[2,3-d]pyrimidin-4-yl]-amine], for which the melting point lay in the range of 246 to 248 °C. For the same molecule, on EGF-R (HER-1), the 50% inhibitory concentration (IC50) was found to be 0.0063 µM. Moreover, 0.0085 µM corresponded to half-maximal inhibition at ErbB-2 (HER-2) (IC50). Also, at VEGF Receptor (KDR), half-maximal inhibition (IC50) required 0.0927 µM.
For the molecule `CCN1CCN(Cc2ccc(-c3cc4c(Nc5ccc(F)c(Cl)c5)ncnc4[nH]3)cc2)CC1` [Example 3, (3-Chloro-4-fluoro-phenyl)-{6-[4-(4-ethyl-piperazin-1-ylmethyl)-phenyl]-7H-pyrrolo[2,3-d]pyrimidin-4-yl}-amine], the melting point fell in the range of 266 to 268 °C. Further, the half-inhibitory concentration (IC50) on EGF-R (HER-1) was found to be 0.0031 µM. The molecule further displayed an IC50 against ErbB-2 (HER-2) of 0.008 µM. At VEGF Receptor (KDR), this molecule had a 50% inhibitory concentration (IC50) of 0.0107 µM.
`Clc1cccc(CNc2ncnc3[nH]c(-c4ccc(CN5CCOCC5)cc4)cc23)c1` [Example 86, (3-Chloro-benzyl)-[6-(4-morpholin-4-ylmethyl-phenyl)-7H-pyrrolo[2,3-d]pyrimidin-4-yl]-amine] returned a melting point of 253 to 254.5 °C. The IC50 at EGF-R (HER-1) worked out at 0.0055 µM. Further, on ErbB-2 (HER-2), the half-maximal inhibitory concentration (IC50) stood at 0.016 µM. Further, at VEGF Receptor (KDR), the IC50 is 0.105 µM.
Turning to `Fc1ccc(Nc2ncnc3[nH]c(-c4ccc(CN5CCOCC5)cc4)cc23)cc1Cl` [Example 7, (3-Chloro-4-fluoro-phenyl)-[6-(4-morpholin-4-ylmethyl-phenyl)-7H-pyrrolo[2,3-d]pyrimidin-4-yl]-amine], the melting point lay in the range of 298 to 300 °C. The IC50 on EGF-R (HER-1) was 0.004 µM. On ErbB-2 (HER-2), this molecule had an IC50 of 0.011 µM. The half-maximal inhibitory concentration (IC50) against VEGF Receptor (KDR) worked out at 0.058 µM.
For `Fc1ccc(Nc2ncnc3[nH]c(-c4ccc(CNC5CCOCC5)cc4)cc23)cc1Cl` [Example 8a, (3-Chloro-4-fluoro-phenyl)-(6-{4-[(tetrahydro-pyran-4-ylamino)-methyl]-phenyl}-7H-pyrrolo[2,3-d]pyrimidin-4-yl)-amine] the same measures were 288 to 290 °C, 0.0024 µM, 0.0094 µM and 0.017 µM.
As to `CCN1CCN(Cc2ccc(-c3cc4c(N[C@H](C)c5ccccc5)ncnc4[nH]3)cc2)CC1` [Example 11, {6-[4-(4-Ethyl-piperazin-1-ylmethyl)-phenyl]-7H-pyrrolo[2,3-d]pyrimidin-4-yl}-((R)-1-phenyl-ethyl)-amine], the IC50 worked out at 0.005 µM on ErbB-2 (HER-2) and 0.0497 µM against VEGF Receptor (KDR).
`C[C@@H](Nc1ncnc2[nH]c(-c3ccc(CNC(=O)CN4CCN(C)CC4)cc3)cc12)c1ccccc1` [Example 43, 2-(4-Methyl-piperazin-1-yl)-N-{4-[4-((R)-1-phenyl-ethylamino)-7H-pyrrolo[2,3-d]pyrimidin-6-yl]-benzyl}-acetamide] had a melting point of 150 to 152 °C. Besides, the half-inhibitory concentration (IC50) on EGF-R (HER-1) was found to be 0.005 µM. For the same molecule, the 50% inhibitory concentration (IC50) against ErbB-2 (HER-2) was 0.0115 µM. Further, inhibition against VEGF Receptor (KDR) was half-maximal at 0.0515 µM (IC50).
Turning to `Fc1ccc(Nc2ncnc3[nH]c(-c4ccc(CN5CCCCC5)cc4)cc23)cc1Cl` [Example 6, (3-Chloro-4-fluoro-phenyl)-[6-(4-piperidin-1-ylmethyl-phenyl)-7H-pyrrolo[2,3-d]pyrimidin-4-yl]-amine], the melting point was in the range of 267 to 269 °C. In addition, at EGF-R (HER-1), the half-maximal inhibitory concentration (IC50) was determined as 0.007 µM. On ErbB-2 (HER-2), this molecule registered an IC50 of 0.005 µM. Also, the IC50 on VEGF Receptor (KDR) turned out to be 0.0127 µM.
In the case of `Fc1ccc(Nc2ncnc3[nH]c(-c4ccc(CN5CCCC5)cc4)cc23)cc1Cl` [Example 4, (3-Chloro-4-fluoro-phenyl)-[6-(4-pyrrolidin-1-ylmethyl-phenyl)-7H-pyrrolo[2,3-d]pyrimidin-4-yl]-amine], the melting point was 268 to 270 °C. Moreover, on EGF-R (HER-1), the half-maximal inhibitory concentration (IC50) stood at 0.0031 µM. At ErbB-2 (HER-2), 0.0072 µM corresponded to half-maximal inhibition (IC50). The 50% inhibitory concentration (IC50) at VEGF Receptor (KDR) was 0.0093 µM.
For `CN(C)Cc1ccc(-c2cc3c(Nc4ccc(=O)[nH]c4)ncnc3[nH]2)cc1` [Example 116, 5-[6-(4-Dimethylaminomethyl-phenyl)-7H-pyrrolo[2,3-d]pyrimidin-4-ylamino]-1H-pyridin-2-one], the IC50 on EGF-R (HER-1) turned out to be 0.039 µM; on ErbB-2 (HER-2), 0.0155 µM; on VEGF Receptor (KDR), 0.0155 µM.
As for `CN1CCN(CC(=O)NCc2ccc(-c3cc4c(Nc5ccc(OCc6ccccc6)cc5)ncnc4[nH]3)cc2)CC1` [Example 52, N-{4-[4-(4-Benzyloxy-phenylamino)-7H-pyrrolo[2,3-d]pyrimidin-6-yl]-benzyl}-2-(4-methyl-piperazin-1-yl)-acetamide], the melting point lay within 232 to 234 °C. Further, at EGF-R (HER-1), the half-inhibitory concentration (IC50) worked out at 0.0157 µM. The same molecule came in with a half-maximal inhibitory concentration (IC50) on ErbB-2 (HER-2) of 0.014 µM. The half-maximal inhibitory concentration (IC50) at VEGF Receptor (KDR) stood at 0.125 µM.
`C[C@@H](Nc1ncnc2[nH]c(-c3ccc(CN4CCCC4)cc3)cc12)c1ccccc1` [Example 12, ((R)-1-Phenyl-ethyl)-[6-(4-pyrrolidin-1-ylmethyl-phenyl)-7H-pyrrolo[2,3-d]pyrimidin-4-yl]-amine]: the melting point lay in the range of 254 to 256 °C. Moreover, the IC50 at EGF-R (HER-1) amounted to 0.0047 µM. Also, the IC50 on ErbB-2 (HER-2) worked out at 0.005 µM. Moreover, the IC50 at VEGF Receptor (KDR) was determined as 0.139 µM.
